“And” between values parts separate entries of the source, which are not always exact repeats. Equal entries are not always repeated. Where two headings read alike, the source gives them in different places.
How the values were obtained:
A/FM/1/47 (H1N1) = assay: microbe, parasite or virus in culture; assay type: cell-based; settings: Influenza A virus, MDCK, read-out: Cell Protection Assay EC50 ± SD
[1] = system: A/Equine/2/Miami/63 (H3N8); assay: microbe, parasite or virus in culture; assay type: cell-based; settings: Influenza A virus, H3N8, MDCK, read-out: Cell Protection Assay EC50 ± SD
A/Georgia/17/2006 (H1N1) = assay: microbe, parasite or virus in culture; assay type: cell-based; settings: Influenza A virus, MDCK, read-out: Cell Protection Assay EC50 ± SD
[2] = system: influenza A/Wisconsin/67/2005 (H3N2) challenge strain virus; assay type: in vivo, humans (healthy volunteers)
A/Victoria/3/75 (H3N2) = assay: microbe, parasite or virus in culture; assay type: cell-based; settings: Influenza A virus, MDCK, read-out: Cell Protection Assay EC50 ± SD
A/Hawaii/2/2006 (H3N2) = assay: microbe, parasite or virus in culture; assay type: cell-based; settings: Influenza A virus, MDCK, read-out: Cell Protection Assay EC50 ± SD
[3] = system: influenza A/Wisconsin/67/2005 (H3N2) challenge strain virus; assay type: in vivo, humans (healthy volunteers); settings: for Composite Clinical Symptom, AUC, median / Influenza like Symptom, AUC, median: Day 1 through Day 7
[4] = single doses up to 1600 mg and multiple doses up to 800 mg daily for 10 days
A/New Jersey/8/76 (H1N1) = assay: microbe, parasite or virus in culture; assay type: cell-based; settings: Influenza A virus, H1N1, MDCK, read-out: Cell Protection Assay EC50 ± SD
[5] = 900 mg Day 1, 600 mg qd Days 2-5, N = 19
[6] = 1200 mg Day 1, 600 mg qd Days 2-5, N = 18
[7] = pooled Compound (1) groups, N = 72
[8] = 900 mg Day 1, 600 mg Days 2-5, […]
[9] = 1200 mg Day 1, 600 mg Days 2-5, […]
[10] = pooled Compound (1) dose groups, […]
[11] = 900 mg Day 1, 600 mg Days 2-5, N = 14
[12] = 1200 mg Day 1, 600 mg Days 2-5, N = 14
[13] = pooled Compound (1) dose groups, N = 52

**Q.** Which results are given for `O=C(O)[C@H]1C2CCC(CC2)C1Nc1nc(-c2c[nH]c3ncc(F)cc23)ncc1F` (some centres unmarked) [Compound (1)]?
**A.** EC50 (A/FM/1/47 (H1N1)): 0.57 ± 0.036 nM; EC50 [1]: 0.5 ± 0.065 nM; EC50 (A/Georgia/17/2006 (H1N1)): 0.13 ± 0.048 nM; tolerability (100 mg to 1200/600 mg QD, five daily doses): well tolerated; Adverse event: Alanine aminotransferase increased (100 mg, N = 16): 3 (18.8) n(%); Adverse event: Aspartate aminotransferase increased (100 mg, N = 16): 1 (6.3) n(%); Adverse event: Blood phosphorus decreased (100 mg, N = 16): 3 (18.8) n(%); Adverse event: Dermatitis contact (100 mg, N = 16): 3 (18.8) n(%); Adverse event: Headache (100 mg, N = 16): 1 (6.3) n(%); Adverse event: Influenza-like illness (100 mg, N = 16): 8 (50.0) n(%); Adverse event: Malaise (100 mg, N = 16): 2 (12.5) n(%); Adverse event: Nasal congestion (100 mg, N = 16): 0 n(%); Adverse event: Nausea (100 mg, N = 16): 0 n(%); Adverse event: Oropharylngeal pain (100 mg, N = 16): 2 (12.5) n(%); Adverse event: Rhinorrhea (100 mg, N = 16): 0 n(%); Adverse event: Spirometry abnormal (100 mg, N = 16): 2 (12.5) n(%); Adverse event: Tension Headache (100 mg, N = 16): 0 n(%); Adverse event: Alanine aminotransferase increased (400 mg, N = 19): 1 (5.3) n(%); Adverse event: Aspartate aminotransferase increased (400 mg, N = 19): 1 (5.3) n(%); Adverse event: Blood phosphorus decreased (400 mg, N = 19): 0 n(%); Adverse event: Dermatitis contact (400 mg, N = 19): 0 n(%); Adverse event: Headache (400 mg, N = 19): 4 (21.1) n(%); Adverse event: Influenza-like illness (400 mg, N = 19): 10 (52.6) n(%); Adverse event: Malaise (400 mg, N = 19): 0 n(%); Adverse event: Nasal congestion (400 mg, N = 19): 0 n(%); Adverse event: Nausea (400 mg, N = 19): 2 (10.5) n(%); Adverse event: Oropharylngeal pain (400 mg, N = 19): 0 n(%); Adverse event: Rhinorrhea (400 mg, N = 19): 2 (10.5) n(%); Adverse event: Spirometry abnormal (400 mg, N = 19): 4 (21.1) n(%); Adverse event: Tension Headache (400 mg, N = 19): 2 (10.5) n(%); Adverse event: Alanine aminotransferase increased [5]: 0 n(%); Adverse event: Aspartate aminotransferase increased [5]: 0 n(%); Adverse event: Blood phosphorus decreased [5]: 6 (31.6) n(%); Adverse event: Dermatitis contact [5]: 0 n(%); Adverse event: Headache [5]: 0 n(%); Adverse event: Influenza-like illness [5]: 9 (47.4) n(%); Adverse event: Malaise [5]: 0 n(%); Adverse event: Nasal congestion [5]: 0 n(%); Adverse event: Nausea [5]: 1 (5.3) n(%); Adverse event: Oropharylngeal pain [5]: 1 (5.3) n(%); Adverse event: Rhinorrhea [5]: 0 n(%); Adverse event: Spirometry abnormal [5]: 0 n(%); Adverse event: Tension Headache [5]: 1 (5.3) n(%); Adverse event: Alanine aminotransferase increased [6]: 6 (33.3) n(%); Adverse event: Aspartate aminotransferase increased [6]: 2 (11.1) n(%); Adverse event: Blood phosphorus decreased [6]: 4 (22.2) n(%); Adverse event: Dermatitis contact [6]: 0 n(%); Adverse event: Headache [6]: 2 (11.1) n(%); Adverse event: Influenza-like illness [6]: 7 (38.9) n(%); Adverse event: Malaise [6]: 0 n(%); Adverse event: Nasal congestion [6]: 1 (5.6) n(%); Adverse event: Nausea [6]: 0 n(%); Adverse event: Oropharylngeal pain [6]: 0 n(%); Adverse event: Rhinorrhea [6]: 1 (5.6) n(%); Adverse event: Spirometry abnormal [6]: 4 (22.2) n(%); Adverse event: Tension Headache [6]: 0 n(%); incidence of decreased blood phosphorus level (Compound (1) groups): 18.1%; incidence of nasal congestion (Compound (1) groups): 1.4%; incidence of rhinorrhea (Compound (1) groups): 4.2%; Adverse event: Alanine aminotransferase increased [7]: 10 (13.9) n(%); Adverse event: Aspartate aminotransferase increased [7]: 4 (5.6) n(%); Adverse event: Blood phosphorus decreased [7]: 13 (18.1) n(%); Adverse event: Dermatitis contact [7]: 3 (4.2) n(%); Adverse event: Headache [7]: 7 (9.7) n(%); Adverse event: Influenza-like illness [7]: 34 (47.2) n(%); Adverse event: Malaise [7]: 2 (2.8) n(%); Adverse event: Nasal congestion [7]: 1 (1.4) n(%); Adverse event: Nausea [7]: 3 (4.2) n(%); Adverse event: Oropharylngeal pain [7]: 3 (4.2) n(%); Adverse event: Rhinorrhea [7]: 3 (4.2) n(%); Adverse event: Spirometry abnormal [7]: 10 (13.9) n(%); Adverse event: Tension Headache [7]: 3 (4.2) n(%); Serology, Sero-conversion (%) [2, 8]: (68%); Serology, Sero-conversion, n/N [2, 8]: 13/19; Serology, Sero-conversion (%) [2, 9]: (67%); Serology, Sero-conversion, n/N [2, 9]: 12/18; Serology, Sero-conversion, n/N ([2]; in vivo): 11/16 and 9/19; Serology, Sero-conversion (%) [2, 10]: (63%); Serology, Sero-conversion, n/N [2, 10]: 45/72; EC50 (A/Victoria/3/75 (H3N2)): 1.3 ± 0.63 nM; EC50 (A/Hawaii/2/2006 (H3N2)): 1.4 ± 0.91 nM; Composite Clinical Symptom, Duration, median ([3]; 100 mg QD 5 days, N = 12): 3.21 days; Composite Clinical Symptom, Peak, mean ([3]; 100 mg QD 5 days, N = 12): 3.17 Grade; Influenza like Symptom, Duration, median ([3]; 100 mg QD 5 days, N = 12): 3.21 days; Influenza like Symptom, Peak, mean ([3]; 100 mg QD 5 days, N = 12): 2.75 Grade; Composite Clinical Symptom, AUC, median ([3]; 100 mg QD 5 days, N = 12): 1.85 Grade*Day; Influenza like Symptom, AUC, median ([3]; 100 mg QD 5 days, N = 12): 1.85 Grade*Day; Composite Clinical Symptom, Duration, median ([3]; 400 mg QD 5 days, N = 12): 3.34 days; Composite Clinical Symptom, Peak, mean ([3]; 400 mg QD 5 days, N = 12): 2.83 Grade; Influenza like Symptom, Duration, median ([3]; 400 mg QD 5 days, N = 12): 3.34 days; Influenza like Symptom, Peak, mean ([3]; 400 mg QD 5 days, N = 12): 2.42 Grade; Composite Clinical Symptom, AUC, median ([3]; 400 mg QD 5 days, N = 12): 4.70 Grade*Day; Influenza like Symptom, AUC, median ([3]; 400 mg QD 5 days, N = 12): 3.80 Grade*Day; Composite Clinical Symptom, Duration, median [3, 11]: 2.69 days; Composite Clinical Symptom, Peak, mean [3, 11]: 3.71 Grade; Influenza like Symptom, Duration, median [3, 11]: 2.69 days; Influenza like Symptom, Peak, mean [3, 11]: 3.21 Grade; Composite Clinical Symptom, AUC, median [3, 11]: 1.75 Grade*Day; Influenza like Symptom, AUC, median [3, 11]: 1.75 Grade*Day; Composite Clinical Symptom, Duration, median [3, 12]: 1.88 days; Composite Clinical Symptom, Peak, mean [3, 12]: 1.50 Grade; Influenza like Symptom, Duration, median [3, 12]: 1.88 days; Influenza like Symptom, Peak, mean [3, 12]: 1.36 Grade; Composite Clinical Symptom, AUC, median [3, 12]: 1.95 Grade*Day; Influenza like Symptom, AUC, median [3, 12]: 1.75 Grade*Day; Composite Clinical Symptom, Duration, median [3, 13]: 2.34 days; Composite Clinical Symptom, Peak, mean [3, 13]: 2.79 Grade; Influenza like Symptom, Duration, median [3, 13]: 2.34 days; Influenza like Symptom, Peak, mean [3, 13]: 2.42 Grade; Composite Clinical Symptom, AUC, median [3, 13]: 2.15 Grade*Day; Influenza like Symptom, AUC, median [3, 13]: 2.05 Grade*Day; liver function abnormalities, serum phosphate decreases [4]: Neither liver function abnormalities nor serum phosphate decreases were observed; EC50 (A/New Jersey/8/76 (H1N1)): 0.2 ± 0.096 nM

Reference: patent publication US20160250213A1, “FORMULATIONS OF AZAINDOLE COMPOUNDS” (priority 2013, published 2016)
